The values that follow come from ChEMBL document CHEMBL1148181, “Anti-AIDS agents, 9. Suberosol, a new C31 lanostane-type triterpene and anti-HIV principle from Polyalthia suberosa” (J Nat Prod, 1993).

In general, IC50 refers to the midpoint of a concentration-inhibition curve. A higher IC50 goes with weaker potency in that assay. By EC50 is commonly meant the concentration at which the effect is half-maximal. A higher EC50 goes with weaker potency.

For one assay, the system named is H9. Put plainly: Cytotoxicity against human H9 lymphocytes. Format: cell-based.
Assay [1] deals with Human immunodeficiency virus 1. Put plainly: Antiviral activity against HIV1 3B in human H9 lymphocytes after 3 days by p24 antigen capture assay. The note with it: Human immunodeficiency virus 1, 3B, 72 h. It counts as functional, organism-based.

Molecules are shown by their SMILES. In brackets after ≈: the same amount, converted by molar mass.

`C=C(CC[C@@H](C)[C@H]1C[C@H](O)[C@@]2(C)C3=CC[C@H]4C(C)(C)[C@@H](O)CC[C@]4(C)C3=CC[C@]12C)C(C)C` [SUBEROSOL]: inhibition in the assay on H9 was half-maximal at 20 µg/mL (≈ 44 µM) (IC50). Further, the concentration for a half-maximal effect (EC50) in assay [1] was determined as 3 µg/mL (≈ 6.6 µM).
